Laboratory results from patent US9403800B2, “Compounds for inhibition of cancer cell proliferation” (ChemRegen, Inc., priority 2012, dated 2016).

What was measured:
Type in all cases: cell-based
[1] = cytotoxicity (Vibrant Cytotox assay), LNCap; settings: human, LNCap cells
HCT-116 [2] = experiment: inhibition of proliferation (PicoGreen DNA assay), HCT-116; settings: Homo sapiens
Experimental: (§1) We tested a subset of the 50 sulfonamide analogues for inhibition of proliferation of the MDA-MB-231, PC-3, MCF-7, and HCT-116 cancer cell lines. Following plating of the cells (24 hrs) in eight identical 96-well plates, the cells were treated with either Compound 1, 4, 15, or vehicle (DMSO) using a dose range of 1.6 to 5000 nM. After the lysis of cells, the cell lysate was resuspended in 25 μl PBS and the DNA was quantified using a PicoGreen assay by measuring fluorescence at Ex490 nm/Em535 nm. Cell proliferation was inhibited by Compounds 1, 4, and 15 for all the cancer cell lines tested with inhibition constants listed in Table 2.

[3] = system: Endogenous Target Genes for Wnt & Apoptotic Pathways in LNCAP; experiment: qPCR of Wnt and pro-apoptotic target genes, LNCAP; parameters: MYC expression, % change relative to DMSO control / CCDN1 expression, % change relative to DMSO control / BAX expression, % change relative to DMSO control / BAK expression, % change relative to DMSO control / BBC3 expression, % change relative to DMSO control / FOS expression, % change relative to DMSO control: concentration or dose not given beside the values; settings: 24 hrs, qPCR normalized to 36B4
LNCap = experiment: viability (Alamar Blue), LNCap; settings: Homo sapiens, 24 hrs
HCT-116 [4] = experiment: stimulation of apoptosis, Caspase 3/7 cleavage (Caspase-Glo Kit), HCT-116; settings: Homo sapiens, HCT-116, 24 hrs
Experimental: Given Compounds 1, 4, and 15 inhibited cancer cell proliferation, we tested whether compounds 1, 4, and 15 stimulated cancer cell apoptosis. The MDA-MB-231, MCF-7, PC-3, and HCT-116 cells were treated with the indicated compounds for 24 hrs. over a dose range from 1.6 to 5000 nM. Apoptosis was then measured by monitoring Caspase 3/7 cleavage (Caspase-Glo Kit).

[5] = cytotoxicity (Vibrant Cytotox assay), MDA-MB-231; settings: human, MDA-MB-231 cells; MDA-MB-231, 24 hrs
Experimental: (§2) Given Compounds 1, 4, and 15 inhibited cancer cell proliferation and stimulated apoptosis, we tested the effects compounds 1, 4, and 15 on cancer cell viability and cytotoxicity. The MDA-MB-231, MCF-7, PC-3, and HCT-116 cells were treated with the indicated compounds for 24 hrs. over a dose range from 1.6 to 5000 nM. Viability and cytotoxicity were then measured by the Alamar Blue and Vibrant Cytotox assays respectively.

PC-3 = experiment: inhibition of proliferation (PicoGreen DNA assay), PC-3; settings: Homo sapiens
Experimental: as §1

MDA-MB-231 [6] = experiment: viability (Alamar Blue), MDA-MB-231; settings: Homo sapiens; MDA-MB-231, 24 hrs
Experimental: as §2

[7] = system: HCT-116 and MCF-7 cancer cells; p53 −/− isogenic HCT-116 cells; experiment: morphology change of cancer cells with and without p53
Source text: Using the same treatment conditions, this morphology change was not observed in […] cells lacking p53 (i.e., −/− p53, isogenic HCT-116 cells) highlighting the integral importance of p53 protein in the mechanism of action of the disclosed compounds.

MDA-MB-231 [8] = experiment: inhibition of proliferation (PicoGreen DNA assay), MDA-MB-231; settings: Homo sapiens
Experimental: as §1

[9] = cytotoxicity (Vibrant Cytotox assay), HCT-116; settings: human, HCT-116 cells; HCT-116, 24 hrs
Experimental: as §2

HCT-116 [10] = experiment: viability (Alamar Blue), HCT-116; settings: Homo sapiens; HCT-116, 24 hrs
Experimental: as §2

[11] = system: Endogenous Target Genes for Wnt & Apoptotic Pathways in MDA-MB 231; experiment: qPCR of Wnt and pro-apoptotic target genes, MDA-MB 231; parameters: concentration or dose not given beside the values; settings: MDA-MB 231, 24 hrs, qPCR normalized to 36B4
Experimental: (§3) Given the effects of Compounds 1, 4, and 15 on biological functions (e.g., proliferation, viability, and apoptosis) in several cancer cell lines, we tested the effects of compounds 1, 4, and 15 on regulation of endogenous Wnt and pro-apoptotic gene expression. MDA-MB-231, MCF-7, PC-3, and HCT-116 cancerncells were treated with the indicated compounds for 24 hrs. over a dose range from 1.6 to 5000 nM. Gene expression was measured using qPCR, normalized to the housekeeping gene, 36B4, and calculated % change relative to DMSO control. NC, no change.

[12] = system: Endogenous Target Genes for Wnt & Apoptotic Pathways in PC-3; experiment: qPCR of Wnt and pro-apoptotic target genes, PC-3; parameters: concentration or dose not given beside the values; settings: PC-3, 24 hrs, qPCR normalized to 36B4
Experimental: as §3

[13] = system: Endogenous Target Genes for Wnt & Apoptotic Pathways in HCT-116; experiment: qPCR of Wnt and pro-apoptotic target genes, HCT-116; parameters: MYC expression, % change relative to DMSO control / CCDN1 expression, % change relative to DMSO control / BAX expression, % change relative to DMSO control / BBC3 expression, % change relative to DMSO control / FOS expression, % change relative to DMSO control: concentration or dose not given beside the values; settings: HCT-116, 24 hrs, qPCR normalized to 36B4
Experimental: as §3

[14] = system: Endogenous Target Genes for Wnt & Apoptotic Pathways in MCF-7; experiment: qPCR of Wnt and pro-apoptotic target genes, MCF-7; parameters: MYC expression, % change relative to DMSO control / BAX expression, % change relative to DMSO control / BAK expression, % change relative to DMSO control / BBC3 expression, % change relative to DMSO control / FOS expression, % change relative to DMSO control: concentration or dose not given beside the values; settings: MCF-7, 24 hrs, qPCR normalized to 36B4
Experimental: as §3

CC1CCc2ccccc2N1S(=O)(=O)c1ccc(N2CCCC2=O)cc1 (stereo not drawn) [Compound 4, 1-(4-(2-methyl-3,4-dihydroquinolin-1(2H)-ylsulfonyl)phenyl)pyrrolidin-2-one]
IC50 at 24 h [1]: > 5000 nM | IC50 (HCT-116 [2]): 100 nM | BAK expression, % change relative to DMSO control [3]: −42% | BAX expression, % change relative to DMSO control [3]: −55% | BBC3 expression, % change relative to DMSO control [3]: −85% | CCDN1 expression, % change relative to DMSO control [3]: −30% | FOS expression, % change relative to DMSO control [3]: −38% | MYC expression, % change relative to DMSO control [3]: −40% | IC50 (LNCap): 87 nM | IC50 (HCT-116 [4]): 143 nM | IC50 at 24 h [5]: > 5000 nM | IC50 (PC-3): 100 nM | IC50 (MDA-MB-231 [6]): 45 nM | morphology change in cancer cells with wild-type and mutant p53 ([7]; HCT-116 and MCF-7, 500 nM for 24 hours): morphology change from a flat adherent cell to a rounded non-adherent one | morphology change in cells lacking p53 ([7]; −/− p53 isogenic HCT-116 cells, 500 nM for 24 hours): not observed | IC50 (MDA-MB-231 [8]): 250 nM | IC50 at 24 h [9]: > 5000 nM | IC50 (HCT-116 [10]): 52 nM | BAK expression, % change relative to DMSO control [11]: −50% | BAX expression, % change relative to DMSO control [11]: −65% | BBC3 expression, % change relative to DMSO control [11]: −80% | CCDN1 expression, % change relative to DMSO control [11]: −25% | FOS expression, % change relative to DMSO control [11]: +100% | JUN expression, % change relative to DMSO control [11]: −45% | MYC expression, % change relative to DMSO control [11]: −55% | BAK expression, % change relative to DMSO control [12]: −55% | BAX expression, % change relative to DMSO control [12]: −55% | BBC3 expression, % change relative to DMSO control [12]: −37% | CCDN1 expression, % change relative to DMSO control [12]: −42% | FOS expression, % change relative to DMSO control [12]: −25% | JUN expression, % change relative to DMSO control [12]: −25% | MYC expression, % change relative to DMSO control [12]: −75% | BAK expression, % change relative to DMSO control [13]: +110% | BBC3 expression, % change relative to DMSO control [13]: −90% | CCDN1 expression, % change relative to DMSO control [13]: −5% | FOS expression, % change relative to DMSO control [13]: −85% | JUN expression, % change relative to DMSO control [13]: +725% | MYC expression, % change relative to DMSO control [13]: −75% | BAK expression, % change relative to DMSO control [14]: +25% | BAX expression, % change relative to DMSO control [14]: +75% | BBC3 expression, % change relative to DMSO control [14]: −40% | CCDN1 expression, % change relative to DMSO control [14]: +100% | FOS expression, % change relative to DMSO control [14]: −85% | JUN expression, % change relative to DMSO control [14]: +50% | MYC expression, % change relative to DMSO control [14]: −5%
